# Patent publication US20220402950A1, “SUBSTITUTED BENZIMIDAZOLES AS PAD4 INHIBITORS” (BRISTOL-MYERS SQUIBB COMPANY, priority 2018, published 2022)
# Biological target: human PAD4 (hPAD4) (Homo sapiens, UniProt Q9UM07)
# Test: RFMS Human PAD4 Functional Assay
# Type: biochemical
# Settings: hPAD4 RFMS IC50, human PAD4, rapid-fire mass spectrum (RFMS) assay; 5 nM hPAD4, 250 μM BAEE
# Procedure, shortened: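 RapidFire ESI-MS quantification, normalised to a modified-citrulline internal standard, after phenyl glyoxal (final 4 mM) derivatisation of the TCA-quenched reaction. The enzyme (10 nM) sat 30 min with compound (up to 50 μM final) before 500 μM BAEE (as added) started a 90 min, 37 °C reaction. Buffer: HEPES pH 7.5, 50 μM calcium, 5 μM TPEN.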
# human PAD4 (hPAD4), sequence (Q9UM07 whole entry): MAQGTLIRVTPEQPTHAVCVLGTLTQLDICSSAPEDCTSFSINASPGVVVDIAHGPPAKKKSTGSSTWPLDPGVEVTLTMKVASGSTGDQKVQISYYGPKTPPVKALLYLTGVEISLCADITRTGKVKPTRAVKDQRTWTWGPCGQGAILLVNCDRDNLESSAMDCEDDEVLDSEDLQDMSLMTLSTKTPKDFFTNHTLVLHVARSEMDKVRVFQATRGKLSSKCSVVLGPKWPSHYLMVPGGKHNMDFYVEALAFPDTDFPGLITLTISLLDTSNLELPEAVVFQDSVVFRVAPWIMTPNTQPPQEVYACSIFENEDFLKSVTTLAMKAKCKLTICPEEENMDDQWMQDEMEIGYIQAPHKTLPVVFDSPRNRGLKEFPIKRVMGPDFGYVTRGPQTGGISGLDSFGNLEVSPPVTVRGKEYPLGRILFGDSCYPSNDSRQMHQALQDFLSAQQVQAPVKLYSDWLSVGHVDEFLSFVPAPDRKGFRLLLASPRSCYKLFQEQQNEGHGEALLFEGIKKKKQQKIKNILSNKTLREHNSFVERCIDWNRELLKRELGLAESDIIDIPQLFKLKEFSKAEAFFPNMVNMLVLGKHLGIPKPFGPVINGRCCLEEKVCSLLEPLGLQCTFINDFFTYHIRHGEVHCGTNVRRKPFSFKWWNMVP
row,Compound,IC50 [nM]
1,"COc1cc(C(=O)N2C[C@H]3CC[C@@H]2[C@@H]3N)cc2nc(-c3cc4cccc(-c5ccc6c(c5)C(C)(O)C(=O)N6)c4n3CC3CC3)n(C)c12 (stereo partly drawn) [Example 192, 5-(2-(5-((1R,4R,7R)-7-amino-2-azabicyclo[2.2.1]heptane-2-carbonyl)-7-methoxy-1-methyl-1H-benzo[d]imidazol-2-yl)-1-(cyclopropylmethyl)-1H-indol-7-yl)-3-hydroxy-3-methylindolin-2-one]",28
2,"COc1cc(C(=O)N2C[C@H]3CC[C@@H]2[C@@H]3N)cc2nc(-c3cc4cccc(-c5ccc(O)cc5C#N)c4n3CC3CC3)n(C)c12 [Example 193, 2-(2-(5-((1R,4R,7R)-7-amino-2-azabicyclo[2.2.1]heptane-2-carbonyl)-7-methoxy-1-methyl-1H-benzo[d]imidazol-2-yl)-1-(cyclopropylmethyl)-1H-indol-7-yl)-5-hydroxybenzonitrile]",33
3,"COc1cc(C(=O)N2C[C@H]3CC[C@@H]2[C@@H]3N)cc2nc(-c3cc4cccc(-c5ccc(C(N)=O)nc5)c4n3CC3CC3)n(C)c12 [Example 194, 5-(2-(5-((1R,4R,7R)-7-amino-2-azabicyclo[2.2.1]heptane-2-carbonyl)-7-methoxy-1-methyl-1H-benzo[d]imidazol-2-yl)-1-(cyclopropylmethyl)-1H-indol-7-yl)picolinamide]",146
4,"COc1cc(C(=O)N2C[C@H]3CC[C@@H]2[C@@H]3N)cc2nc(-c3cc4cccc(-c5ccc(O)nc5)c4n3CC3CC3)n(C)c12 [Example 197, ((1R,4R,7R)-7-amino-2-azabicyclo[2.2.1]heptan-2-yl)(2-(1-(cyclopropylmethyl)-7-(6-hydroxypyridin-3-yl)-1H-indol-2-yl)-7-methoxy-1-methyl-1H-benzo[d]imidazol-5-yl)methanone]",120
5,"COc1cc(C(=O)N2C[C@H]3CC[C@@H]2[C@@H]3N)cc2nc(-c3cc4cccc(-c5ccc6c(c5)C(O)(C(F)(F)F)C(=O)N6)c4n3CC3CC3)n(C)c12 (stereo partly drawn) [Example 198, 5-(2-(5-((1R,4R,7R)-7-amino-2-azabicyclo[2.2.1]heptane-2-carbonyl)-7-methoxy-1-methyl-1H-benzo[d]imidazol-2-yl)-1-(cyclopropylmethyl)-1H-indol-7-yl)-3-hydroxy-3-(trifluoromethyl)indolin-2-one]",26
6,"COc1cc(C(=O)N2C[C@H]3CC[C@@H]2[C@@H]3N)cc2nc(-c3cc4cccc(-c5cnc(C(N)=O)c(F)c5)c4n3CC3CC3)n(C)c12 [Example 199, 5-(2-(5-((1R,4R,7R)-7-amino-2-azabicyclo[2.2.1]heptane-2-carbonyl)-7-methoxy-1-methyl-1H-benzo[d]imidazol-2-yl)-1-(cyclopropylmethyl)-1H-indol-7-yl)-3-fluoropicolinamide]",159
7,"COc1cc2c(cc1-c1cccc3cc(-c4nc5cc(C(=O)N6C[C@H]7CC[C@@H]6[C@@H]7N)cc(OC)c5n4C)n(CC4CC4)c13)CCC(=O)N2 [Example 204, 6-(2-(5-((1R,4R,7R)-7-amino-2-azabicyclo[2.2.1]heptane-2-carbonyl)-7-methoxy-1-methyl-1H-benzo[d]imidazol-2-yl)-1-(cyclopropylmethyl)-1H-indol-7-yl)-7-methoxy-3,4-dihydroquinolin-2(1H)-one]",139
8,"COc1cc(C(=O)N2C[C@H](N)C[C@@H](F)C2)cc2nc(-c3cc4cccc(C5CCN(C(C)=O)CC5)c4n3CC3CC3)n(C)c12 [Example 205, 1-(4-(2-(5-((3R,5R)-3-amino-5-fluoropiperidine-1-carbonyl)-7-methoxy-1-methyl-1H-benzo[d]imidazol-2-yl)-1-(cyclopropylmethyl)-1H-indol-7-yl)piperidin-1-yl)ethan-1-one]",41
9,"COc1cc(C(=O)N2C[C@H](N)C[C@@H](F)C2)cc2nc(-c3cc4cccc(-c5ccc(O)c(F)c5)c4n3CC3CC3)n(C)c12 [Example 206, ((3R,5R)-3-amino-5-fluoropiperidin-1-yl)(2-(1-(cyclopropylmethyl)-7-(3-fluoro-4-hydroxyphenyl)-1H-indol-2-yl)-7-methoxy-1-methyl-1H-benzo[d]imidazol-5-yl)methanone]",145
10,"COc1cc(C(=O)N2C[C@H](N)C[C@@H](F)C2)cc2nc(-c3cc4cccc(-c5ccc6c(c5)CC(=O)N6)c4n3CC3CC3)n(C)c12 [Example 207, 5-(2-(5-((3R,5R)-3-amino-5-fluoropiperidine-1-carbonyl)-7-methoxy-1-methyl-1H-benzo[d]imidazol-2-yl)-1-(cyclopropylmethyl)-1H-indol-7-yl)indolin-2-one]",70
11,"COc1cc(C(=O)N2C[C@H](N)C[C@@H](F)C2)cc2nc(-c3cc4cccc(-c5ccc6c(c5)C(C)(O)C(=O)N6)c4n3CC3CC3)n(C)c12 (stereo partly drawn) [Example 208, 5-(2-(5-((3R,5R)-3-amino-5-fluoropiperidine-1-carbonyl)-7-methoxy-1-methyl-1H-benzo[d]imidazol-2-yl)-1-(cyclopropylmethyl)-1H-indol-7-yl)-3-hydroxy-3-methylindolin-2-one]",71
12,"COc1cc(C(=O)N2C[C@H](N)C[C@@H](F)C2)cc2nc(-c3cc4cccc(-c5ccc6c(c5)CNC6=O)c4n3CC3CC3)n(C)c12 [Example 209, 5-(2-(5-((3R,5R)-3-amino-5-fluoropiperidine-1-carbonyl)-7-methoxy-1-methyl-1H-benzo[d]imidazol-2-yl)-1-(cyclopropylmethyl)-1H-indol-7-yl)isoindolin-1-one]",69
13,"COc1cc(C(=O)N2C[C@H]3CC[C@@H]2[C@@H]3N)cc2nc(-c3cc4cccc(C5CN(C(C)=O)C5)c4n3CC3CC3)n(Cc3cnn(C)c3)c12 [Example 210, 1-(3-(2-(5-((1R,4R,7R)-7-amino-2-azabicyclo[2.2.1]heptane-2-carbonyl)-7-methoxy-1-((1-methyl-1H-pyrazol-4-yl)methyl)-1H-benzo[d]imidazol-2-yl)-1-(cyclopropylmethyl)-1H-indol-7-yl)azetidin-1-yl)ethan-1-one]",18
14,"COC(=O)N1CC(c2cccc3cc(-c4nc5cc(C(=O)N6C[C@H](N)C[C@@H](F)C6)cc(OC)c5n4Cc4cnn(C)c4)n(CC4CC4)c23)C1 [Example 211, methyl 3-(2-(5-((3R,5R)-3-amino-5-fluoropiperidine-1-carbonyl)-7-methoxy-1-((1-methyl-1H-pyraozl-4-yl)methyl)-1H-benzo[d]imidazol-2-yl)-1-(cyclopropylmethyl)-1H-indol-7-yl)azetidine-1-carboxylate]",26
15,"COc1cc(C(=O)N2C[C@H](N)C[C@@H](F)C2)cc2nc(-c3cc4cccc(C5CN(C(C)=O)C5)c4n3CC3CC3)n(Cc3cnn(C)c3)c12 [Example 212, 1-(3-(2-(5-((3R,5R)-3-amino-5-fluoropiperidine-1-carbonyl)-7-methoxy-1-((1-methyl-1H-pryazol-4-yl)methyl)-1H-benzo[d]imidazol-2-yl)-1-(cyclopropylmethyl)-1H-indol-7-yl)azetidin-1-yl)ethane-1-one]",35
16,"COC(=O)N1CC(c2cccc3cc(-c4nc5cc(C(=O)N6C[C@H]7CC[C@@H]6[C@@H]7N)cc(OC)c5n4Cc4cnn(C)c4)n(CC4CC4)c23)C1 [Example 213, methyl 3-(2-(5-((1R,4R,7R)-7-amino-2-azabicyclo[2.2.1]heptane-2-carbonyl)-7-methoxy-1-((1-methyl-1H-pyrazol-4-yl)methyl)-1H-benzo[d]imidazol-2-yl)-1-(cyclopropylmethyl)-1H-indol-7-yl)azetidine-1-carboxylate]",21
17,"COc1cc(C(=O)N2C[C@H]3CC[C@@H]2[C@@H]3N)cc2nc(-c3cc4cccc(C5CN(C(C)=O)C5)c4n3C)n(Cc3cnn(C)c3)c12 [Example 214, 1-(3-(2-(5-((1R,4R,7R)-7-amino-2-azabicyclo[2.2.1]heptane-2-carbonyl)-7-methoxy-1-((1-methyl-1H-pyrazol-4-yl)methyl)-1H-benzo[d]imidazol-2-yl)-1-methyl-1H-indol-7-yl)azetidin-1-yl)ethan-1-one]",155
18,"COc1cc(C(=O)N2C[C@H](N)C[C@@H](F)C2)cc2nc(-c3cc4cccc(C5CN(C(C)=O)C5)c4n3C)n(Cc3cnn(C)c3)c12 [Example 215, 1-(3-(2-(5-((3R,5R)-3-amino-5-fluoropiperidine-1-carbonyl)-7-methoxy-1-((1-methyl-1H-pyrazol-4-yl)methyl)-1H-benzo[d]imidazol-2-yl)-1-methyl-1H-indol-7-yl)azetidin-1-yl)ethane-1-one]",183
19,"COC(=O)N1CC(c2cccc3cc(-c4nc5cc(C(=O)N6C[C@H]7CC[C@@H]6[C@@H]7N)cc(OC)c5n4Cc4cnn(C)c4)n(C)c23)C1 [Example 216, methyl 3-(2-(5-((1R,4R,7R)-7-amino-2-azabicyclo[2.2.1]heptane-2-carbonyl)-7-methoxy-1-((1-methyl-1H-pyrazol-4-yl)methyl)-1H-benzo[d]imidazol-2-yl)-1-methyl-1H-indol-7-yl)azetidine-1-carboxylate]",101
20,"COC(=O)N1CCC(c2cccc3cc(-c4nc5cc(C(=O)N6C[C@H]7CC[C@@H]6[C@@H]7N)cc(OC)c5n4C)n(CC4CC4)c23)CC1 [Example 217, methyl 4-(2-(5-((1R,4R,7R)-7-amino-2-azabicyclo[2.2.1]heptane-2-carbonyl)-7-methoxy-1-methyl-1H-benzo[d]imidazol-2-yl)-1-(cyclopropylmethyl)-1H-indol-7-yl)piperidine-1-carboxylate]",27
21,"COc1cc(C(=O)N2C[C@H]3CC[C@@H]2[C@@H]3N)cc2nc(-c3cc4cccc(C5(O)CCC5)c4n3CC3CC3)n(C)c12 [Example 218, ((1R,4R,7R)-7-amino-2-azabicyclo[2.2.1]heptan-2-yl)(2-(1-(cyclopropylmethyl)-7-(1-hydroxycyclobutyl)-1H-indol-2-yl)-7-methoxy-1-methyl-1H-benzo[d]imidazol-5-yl)methanone]",57
